Where two headings read alike, the source gives them in different places.
Legend:
[1] = tested on: DNA extracted from H. pylori; experiment: DNA fragmentation assay; conditions: data not shown
[2] = tested on: C. albicans; experiment: MIC, antifungal activity assay; format: cell-based, Candida albicans (DSM 10697); conditions: Candida albicans; Table 1 first screening; 35 °C, 24 h; read-out: Minimal Inhibitory Concentration (MIC) C. albicans
[3] = tested on: B. subtilis; experiment: Bacterial membrane permeabilization assay (propidium iodide); format: cell-based, Bacillus subtilis; conditions: for membrane permeabilization at 4-times MIC, B. subtilis: 4-times their MIC; for maximal membrane permeabilization, B. subtilis: 120 min exposure to 100 µM, CTAB 300 µM = 100%
Method: (§1) Membrane permeabilization by berberine derivatives was evaluated using the cell-impermeable DNA/RNA probe propidium iodide as previously explained. Logarithmic growing bacterial suspensions were prepared from overnight bacterial suspension by 1 in 10 dilution. After 3 h incubation at 37 °C, 200 rpm, bacterial suspensions were centrifuged for 5 min at 3000 rpm. Cell pellets were then resuspended in sterile PBS at about 10^9 cells/mL. Propidium iodide (Sigma Aldrich) was then added to the suspension at a final concentration of 60 µM. 100 µL of this suspension were then transferred into 96-well black plates (Dominique Dutscher) and exposed to increasing concentrations of berberine’s derivative (from 0 to 100 µM, 1:2 dilution). […] All steps of the assay were performed in aerobic condition except for H. pylori which was done in microaerobic condition generated with GasPak unit (Sigma Aldrich). Bacteria were incubated at 37 °C and the kinetics of fluorescence variations (excitation at 530 nm and emission at 590 nm) were then recorded over time using a Synergy Mx microplate reader (Biotek). Cetyl trimethylammonium bromide (CTAB) at 300 µM was used as positive control giving 100% permeabilization. Results were expressed in % of permeabilization. All experiments were done in triplicate.

[4] = tested on: V. diabolicus; experiment: MIC, antimicrobial activity assay; format: cell-based; conditions: Vibrio diabolicus; Table 4, Gram-negative
[5] = tested on: P. aeruginosa; experiment: MIC, antimicrobial activity assay; format: cell-based, Pseudomonas aeruginosa (ATCC 9027); conditions: Pseudomonas aeruginosa
[6] = tested on: A. baumannii; experiment: MIC, antimicrobial activity assay; format: cell-based, Acinetobacter baumannii (CIP 110431); conditions: Acinetobacter baumannii; Table 4, Gram-negative
[7] = tested on: S. pyogenes; experiment: MIC, antimicrobial activity assay; format: cell-based, Streptococcus pyogenes (DSM 20565); conditions: Streptococcus pyogenes; Table 4, Gram-positive; anaerobic
[8] = tested on: V. alginolyticus; experiment: MIC, antimicrobial activity assay; format: cell-based, Vibrio alginolyticus (DSM 2171); conditions: Vibrio alginolyticus; Table 4, Gram-negative
[9] = tested on: B. cereus; experiment: MIC, antimicrobial activity assay; format: cell-based; conditions: Bacillus cereus; Table 4, Gram-positive
[10] = tested on: S. enterica; experiment: MIC, antimicrobial activity assay; format: cell-based, Salmonella enterica (CIP 80.39); conditions: Salmonella enterica; Table 4, Gram-negative
[11] = tested on: C. rodentium; experiment: MIC, antimicrobial activity assay; format: cell-based, Citrobacter rodentium (ATCC 51116); conditions: Citrobacter rodentium; Table 4, Gram-negative
[12] = tested on: C. perfringens; experiment: microbe, parasite or virus in culture; format: cell-based, Clostridium perfringens (ATCC 13124); conditions: Clostridium perfringens, read-out: MIC C. perfringens
[13] = tested on: C. difficile; experiment: MIC, antimicrobial activity assay; format: cell-based, Clostridium difficile (DSM 1296); conditions: Clostridioides difficile; Table 4, Gram-positive; anaerobic
[14] = tested on: L. lactis; experiment: MIC, antimicrobial activity assay; format: cell-based, Lactococcus lactis (DSM 20481); conditions: Lactococcus lactis; Table 4, Gram-positive
[15] = tested on: H. pylori; experiment: MIC, antimicrobial activity assay; format: cell-based, Helicobacter pylori (ATCC 43504); conditions: Helicobacter pylori; Table 4, Gram-negative; microaerobic
[16] = tested on: E. faecalis (Vancomycin-resistant); experiment: MIC, antimicrobial activity assay; format: cell-based, vancomycin-resistant Enterococcus faecalis (DSMZ 13591); conditions: Enterococcus faecalis, read-out: MIC E. faecalis (Vancomycin-resistant)
[17] = tested on: H. pylori; experiment: Bacterial membrane permeabilization assay (propidium iodide); format: cell-based, Helicobacter pylori; conditions: for membrane permeabilization at 4-times MIC, H. pylori: 4-times their MIC; for maximal membrane permeabilization, H. pylori: 120 min exposure to 100 µM, CTAB 300 µM = 100%
Method: as §1

[18] = tested on: bacterial DNA extracted from B. subtilis; experiment: DNA fragmentation assay; conditions: 6 h at 37 °C, 4-times their MIC
[19] = tested on: S. aureus; experiment: Bacterial membrane permeabilization assay (propidium iodide); format: cell-based, Staphylococcus aureus; conditions: for membrane permeabilization at 4-times MIC, S. aureus: 4-times their MIC; for maximal membrane permeabilization, S. aureus: 120 min exposure to 100 µM, CTAB 300 µM = 100%
Method: as §1

[20] = tested on: bacterial DNA extracted from V. alginolyticus; experiment: DNA fragmentation assay; conditions: 6 h at 37 °C, 4-times their MIC
[21] = tested on: V. alginolyticus; experiment: Macromolecule synthesis inhibition assay by fluorescent microscopy (morphological changes); conditions: 4 × MIC, 2 h, 37 °C; for Observed Morphology: DNA, V. alginolyticus: DAPI; for Observed Morphology: cell membrane, V. alginolyticus: FM4-64FX; for Known/Possible Target, V. alginolyticus: inferred from morphology
[22] = tested on: K. pneumonia; experiment: MIC, antimicrobial activity assay; format: cell-based, Klebsiella pneumoniae (DSMZ 26371); conditions: Klebsiella pneumoniae; Table 4, Gram-negative
[23] = Table 1 first screening, read-out: Minimal Inhibitory Concentration (MIC) P. aeruginosa
[24] = Table 4, Gram-negative, read-out: MIC P. aeruginosa

With `COc1cc(C(=O)Cc2c3[n+](cc4c(OC)c(OC)ccc24)CCc2cc4c(cc2-3)OCO4)cc(OC)c1OC(=O)c1ccccc1` [Compound 16, 4-[2-(Berberin-13-yl)acetyl]-2,6-dimethoxyphenyl Benzoate] as the molecule, how does the “DNA fragmentation, H. pylori DNA” value [1] read?
The value was “failed at causing the fragmentation of DNA”.

What about the MIC [2] of the same molecule?
The MIC was > 100 µM.

What about the “membrane permeabilization at 4-times MIC, B. subtilis” value [3] of the same molecule?
Its value is “low to no membrane permeabilization”.

What about the “maximal membrane permeabilization, B. subtilis” value [3] of the same molecule?
Its value is 10–15%.

And the MIC [4]?
Its MIC is > 100 µM.

And the MIC [5, 23]?
Its MIC is > 100 µM.

And the MIC [5, 24]?
The MIC was > 100 µM.

What about the MIC [6] of the same molecule?
Its MIC is > 100 µM.

And the MIC [7]?
Its MIC is 6.25 µM.

And the MIC [8]?
Its MIC is 3.12 µM.

What about the MIC [9] of the same molecule?
Its MIC is 12.5 µM.

And the MIC [10]?
Its MIC is > 100 µM.

And the MIC [11]?
The MIC was > 100 µM.

What about the MIC [12] of the same molecule?
Its MIC is 25 µM.

And the MIC [13]?
Its MIC is 100 µM.

And the MIC [14]?
The MIC was 6.25 to 12.5 µM.

What about the MIC [15] of the same molecule?
The MIC was 6.25 µM.

And the MIC [16]?
The MIC was 50 µM.

And the “membrane permeabilization at 4-times MIC, H. pylori” value [17]?
Its value is “low to no membrane permeabilization”.

What about the “maximal membrane permeabilization, H. pylori” value [17] of the same molecule?
Its value is 50–60%.

What about the “DNA fragmentation, B. subtilis DNA” value [18] of the same molecule?
The value was “did not caused DNA fragmentation”.

And the “membrane permeabilization at 4-times MIC, S. aureus” value [19]?
Its value is “low to no membrane permeabilization”.

What about the “maximal membrane permeabilization, S. aureus” value [19] of the same molecule?
Its value is 80–100%.

And the “DNA fragmentation, V. alginolyticus DNA” value [20]?
The value was “did not caused DNA fragmentation”.

What about the “Observed Morphology: cell elongation, V. alginolyticus” value [21] of the same molecule?
The value was 2–4 times compared to control.

And the “Observed Morphology: cells connected, V. alginolyticus” value [21]?
Its value is 2–4 cells connected.

And the “Observed Morphology: DNA, V. alginolyticus” value [21]?
The value was “Decondensed DNA spanning cell”.

And the “Observed Morphology: cell membrane, V. alginolyticus” value [21]?
Its value is “Cell membrane thickening”.

And the “Known/Possible Target, V. alginolyticus” value [21]?
The value was “Cell wall biosynthesis”.

And the MIC [22]?
Its MIC is > 100 µM.

For `COc1ccc(C(=O)/C=C/c2ccc(Cc3c4[n+](cc5c(OC)c(OC)ccc35)CCc3cc5c(cc3-4)OCO5)cc2)c(O)c1` [Compound 25, (2E)-3-{4-[(Berberin-13-yl)methyl]phenyl}-1-(2-hydroxy-4-methoxyphenyl)prop-2-en-1-one], which “DNA fragmentation, H. pylori DNA” value [1] is on record?
The value was “failed at causing the fragmentation of DNA”.

What about the MIC [2] of the same molecule?
Its MIC is 12.5 µM.

What about the “membrane permeabilization at 4-times MIC, B. subtilis” value [3] of the same molecule?
Its value is “low to no membrane permeabilization”.

What about the “maximal membrane permeabilization, B. subtilis” value [3] of the same molecule?
The value was 10–15%.

What about the MIC [4] of the same molecule?
The MIC was > 100 µM.

And the MIC [5, 23]?
The MIC was > 100 µM.

What about the MIC [5, 24] of the same molecule?
The MIC was > 100 µM.

And the MIC [6]?
The MIC was > 100 µM.

And the MIC [7]?
The MIC was 6.25 µM.

What about the MIC [8] of the same molecule?
Its MIC is 3.12 µM.

What about the MIC [9] of the same molecule?
The MIC was 6.25 µM.

What about the MIC [10] of the same molecule?
The MIC was > 100 µM.

What about the MIC [11] of the same molecule?
The MIC was > 100 µM.

And the MIC [12]?
The MIC was 25 µM.

And the MIC [13]?
Its MIC is 12.5 µM.

And the MIC [14]?
Its MIC is 1.5 to 3.12 µM.

And the MIC [15]?
Its MIC is 3.12 µM.

What about the MIC [16] of the same molecule?
The MIC was 12.5 µM.

And the “membrane permeabilization at 4-times MIC, H. pylori” value [17]?
Its value is “low to no membrane permeabilization”.

What about the “maximal membrane permeabilization, H. pylori” value [17] of the same molecule?
The value was 50–60%.

What about the “DNA fragmentation, B. subtilis DNA” value [18] of the same molecule?
Its value is “did not caused DNA fragmentation”.

And the “membrane permeabilization at 4-times MIC, S. aureus” value [19]?
The value was “low to no membrane permeabilization”.

And the “maximal membrane permeabilization, S. aureus” value [19]?
The value was 80–100%.

What about the “DNA fragmentation, V. alginolyticus DNA” value [20] of the same molecule?
The value was “did not caused DNA fragmentation”.

And the “Observed Morphology: cell elongation, V. alginolyticus” value [21]?
The value was 2–7 times compared to control.

What about the “Observed Morphology: cells connected, V. alginolyticus” value [21] of the same molecule?
The value was 1–2 cells connected.

What about the “Observed Morphology: DNA, V. alginolyticus” value [21] of the same molecule?
The value was “Condensed DNA spanning the cell”.

What about the “Observed Morphology: cell membrane, V. alginolyticus” value [21] of the same molecule?
The value was “Cell membrane pigmentation”.

And the “Known/Possible Target, V. alginolyticus” value [21]?
The value was “RNA biosynthesis”.

And the MIC [22]?
The MIC was > 100 µM.
